Measured values: the supplement of paper PMC10307832

Columns and labels:
Experiment in all cases: relative viability (nuclei count vs DMSO), 5 days (fraction); higher = more cells survive
Bortezomib = compound: CC(C)C[C@H](NC(=O)[C@H](Cc1ccccc1)NC(=O)c1cnccn1)B(O)O [Bortezomib]
In short: (§1)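 Lung cancer cell lines in 1536-well plates were exposed by pinning to five library-drug doses (not always all listed) √10 apart, following an overnight hold at 37 °C. MetaXpress counted Hoechst-stained nuclei from 4× images taken after 5 days without medium change. Viability is the median ratio of treated-well to vehicle-well nuclei across plates. Plates required control CV below 25% and at least one doubling.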

[1] = compound: CC1=CC(=NN1)NC2=CC(=NC(=N2)/C=C/C3=CC=CC=C3)N4CCN(CC4)C
In short: as §1

Obatoclax = compound: COC1=CC(c2cc3ccccc3[nH]2)=N/C1=C\c1[nH]c(C)cc1C [Obatoclax]
In short: as §1

Row | Cell Line | relative viability (Bortezomib; 0.0002 µM) | relative viability (Bortezomib; 0.000632 µM) | relative viability (Bortezomib; 0.002 µM) | relative viability (Bortezomib; 0.002 µM, anchor plate) | relative viability (Bortezomib; 0.006325 µM) | relative viability (Bortezomib; 0.02 µM) | relative viability ([1]; 0.08 µM) | relative viability ([1]; 0.253 µM) | relative viability ([1]; 0.8 µM) | relative viability ([1]; 2.53 µM) | relative viability ([1]; 8 µM) | relative viability (Obatoclax; 0.01 µM) | relative viability (Obatoclax; 0.03162 µM) | relative viability (Obatoclax; 0.1 µM) | relative viability (Obatoclax; 0.3162 µM) | relative viability (Obatoclax; 1 µM)
1 | BEN | 0.91 | 0.991 | 0.954 | 0.843 | 0.704 | 0.274 | 0.921 | 0.974 | 0.998 | 0.618 | 0.224 | 1.02 | 0.821 | 0.727 | 0.922 | 0.953
2 | EPLC-272H | 0.8 | 0.652 | 0.871 | 0.902 | 0.66 | 0.105 | 0.819 | 1.09 | 0.908 | 0.404 | 0.35 | 0.99 | 0.924 | 0.96 | 0.675 | 0.339
3 | LK-2 | 0.841 | 0.89 | 0.647 |  | 0.209 | 0.182 | 1.04 | 1.02 | 0.809 | 0.47 | 0.127 | 1.03 | 1.01 | 1.17 | 0.932 | 1.11
4 | NCI-H1299 | 0.992 | 0.955 | 1.03 | 1 | 0.507 | 0.167 | 1.04 | 1.02 | 1.03 | 0.719 | 0.328 | 0.989 | 1.03 | 0.948 | 1.01 | 0.9
5 | ChaGo-K-1 | 0.993 | 0.814 | 1.01 | 1.08 | 0.594 | 0.213 | 0.953 | 1.01 | 0.976 | 0.647 | 0.289 | 0.997 | 0.829 | 1.01 | 0.931 | 1.06
6 | NCI-H1703 | 1.15 | 0.757 | 0.356 | 0.338 | 0.132 | 0.119 | 0.825 | 0.912 | 0.575 | 0.19 | 0.135 | 0.955 | 0.846 | 0.858 | 0.72 | 0.542
7 | UMC-11 | 0.896 | 0.927 | 0.946 | 0.757 | 0.668 | 0.185 | 0.928 | 0.904 | 0.693 | 0.187 | 0.141 | 1.02 | 0.962 | 0.843 | 0.921 | 0.554
8 | HCC-827 | 1.06 | 1.04 | 1.05 | 1.05 | 0.738 | 0.165 | 1.02 | 1.06 | 1.06 | 0.89 | 0.443 | 0.97 | 0.957 | 0.946 | 1.05 | 0.979
9 | NCI-H1993 | 0.903 | 0.935 | 1.01 | 1.19 | 0.493 | 0.502 | 0.91 | 0.882 | 1.27 | 0.571 | 0.423 | 0.92 | 0.865 | 1.07 | 1.03 | 0.896
